# Results published in patent US20230181519A1, “Compositions And Methods For Treating Nicotine-Related Disorders And Symptoms Using Dihydromyricetin” (priority 2021, published 2023).
# “Also recorded” adds a separate entry of the source.
# Columns and labels:
# VTA DA neurons [1] = assay: VTA DA neuronal firing in anesthetized mice (in vivo recording); settings: i.v.
# Text: Part C is after in vivo recording. The recording site was dyed using blue-sky dye, and confirmed by cutting brain sections that contained VTA.
# [2] = tested on: NIC-induced conditioned-place preference; assay: NIC-induced conditioned-place preference (CPP); assay type: in vivo
# Protocol: In this example, the effects of DHM on NIC-induced conditioned-place preference (“CCP”) were measured.
# Part A is the CPP performance protocol.
# VTA DA neurons [3] = assay: VTA dopamine neuronal firing in VTA slices (cell-attached recording); assay type: cell-based, mouse
# Protocol: In this example, the effects of DHM on mouse ventral tegmental area (“VTA”) dopamine (“DPA”) neuronal firing in slices were measured.
# C57BL/J mice = assay: NIC-induced behavioral sensitization (local motor activity); assay type: in vivo
# Protocol: In this example, the effects of DHM on NIC-induced behavioral sensitization in mice were measured.
# C57BL/J mice were repetitively treated with NIC (0.5 mg/kg, i.p.), and the local motor activities were measured.
# α4β2-nAChRs = molecular target: T1, α4β2-nAChRs (Homo sapiens, UniProt P17787+P43681); assay: ACh-induced whole-cell currents of transfected α4β2-nAChRs in SH-EP1 cells; assay type: cell-based; settings: DHM co-applied at different concentrations, SH-EP1 cells (FIG. 1)
# T1 construct: expressed in transfected cells; host or cells: human SH-EP1 cells
# T1 sequence (P43681 29-627 limits assumed): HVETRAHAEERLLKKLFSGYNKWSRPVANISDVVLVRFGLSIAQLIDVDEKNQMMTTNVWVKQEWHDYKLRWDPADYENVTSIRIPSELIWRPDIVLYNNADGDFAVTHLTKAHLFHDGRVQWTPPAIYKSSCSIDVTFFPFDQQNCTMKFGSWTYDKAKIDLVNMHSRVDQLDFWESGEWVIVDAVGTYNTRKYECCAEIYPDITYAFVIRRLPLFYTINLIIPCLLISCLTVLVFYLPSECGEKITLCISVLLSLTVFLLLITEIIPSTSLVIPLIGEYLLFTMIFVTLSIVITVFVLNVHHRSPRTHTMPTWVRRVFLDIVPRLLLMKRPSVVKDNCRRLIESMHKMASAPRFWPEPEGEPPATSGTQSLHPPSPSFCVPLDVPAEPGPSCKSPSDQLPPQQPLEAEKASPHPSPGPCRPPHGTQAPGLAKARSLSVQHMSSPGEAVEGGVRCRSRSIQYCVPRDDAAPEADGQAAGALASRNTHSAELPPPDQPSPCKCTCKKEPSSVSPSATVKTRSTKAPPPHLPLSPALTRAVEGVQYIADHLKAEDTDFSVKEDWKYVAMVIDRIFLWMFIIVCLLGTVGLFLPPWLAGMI
# T1 sequence (P17787 26-502): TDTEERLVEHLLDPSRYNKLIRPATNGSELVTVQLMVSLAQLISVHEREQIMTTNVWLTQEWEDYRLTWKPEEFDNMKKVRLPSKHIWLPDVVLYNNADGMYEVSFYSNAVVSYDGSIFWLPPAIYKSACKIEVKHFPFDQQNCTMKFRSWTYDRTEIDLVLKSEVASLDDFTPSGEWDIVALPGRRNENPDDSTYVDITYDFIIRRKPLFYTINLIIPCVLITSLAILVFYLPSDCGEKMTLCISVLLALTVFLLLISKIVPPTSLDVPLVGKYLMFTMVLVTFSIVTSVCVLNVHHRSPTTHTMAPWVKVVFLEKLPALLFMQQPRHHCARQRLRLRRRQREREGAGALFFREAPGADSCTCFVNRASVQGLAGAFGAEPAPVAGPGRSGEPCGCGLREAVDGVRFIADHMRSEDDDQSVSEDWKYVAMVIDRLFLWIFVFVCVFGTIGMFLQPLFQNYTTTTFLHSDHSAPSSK
# Protocol: In this example, the effects of DHM on transfected α4β2-nAChRs in human SH-EP1 cells (a model system to study human acetylcholine (“ACh”) receptors) were measured. Traces of ACh-induced whole-cell currents co-applied with different concentrations of DHM were created and examined.
# [4] = NIC 0.5 mg/kg, anesthetized mice (FIG. 3 B)
# [5] = NIC 0.5 mg/kg, i.p., repetitive, C57BL/J mice (FIG. 6)
SMILES,"DA neuronal firing rate, effect of DHM (VTA DA neurons [1]; DHM 1 and 10 mg/kg, anesthetized mice (FIG. 4))","NIC-induced AP firing increase, effect of DHM (VTA DA neurons [1]; DHM 1 and 10 mg/kg, anesthetized mice (FIG. 4 D))","NIC-induced CPP, overall ([2]; FIG. 5)","NIC-induced CPP after withdrawal 5 days of NIC (day 19) ([2]; FIG. 5 B, C)",NIC-induced CPP at test day (day 13) ([2]; FIG. 5 C),"NIC-induced enhancement of AP firing rate, effect of DHM (VTA DA neurons [3]; VTA slices (FIG. 2 C, D))","DA neuron firing rate, effect of DHM itself (VTA DA neurons [3]; VTA slices, different concentrations of DHM (FIG. 2 D))","NIC-induced behavioral sensitization (local motor activity), effect of DHM (C57BL/J mice; NIC group vs NIC+DHM group (FIG. 7))",a4b2-nAChR-mediated whole-cell currents (α4β2-nAChRs),"DA neuronal firing, time-frequency relationship after NIC (VTA DA neurons [1]; NIC 0.5 mg/kg, anesthetized mice (FIG. 3 A))",AP firing rate after systemic injection of NIC (VTA DA neurons [1]; [4]),bursting firing after systemic injection of NIC (VTA DA neurons [1]; [4]),slow oscillations (SO) after systemic injection of NIC (VTA DA neurons [1]; [4]),"AP firing rate of DA neurons, effect of bath-applied nicotine (VTA DA neurons [3]; VTA slices, cell-attached recording (FIG. 2 A, B))",motor activity (total move distance) with repetitive injections of NIC (C57BL/J mice; [5]),motor activity after withdrawal at 5 and 10 days (C57BL/J mice; [5])
"O=C1c2c(O)cc(O)cc2O[C@H](c2cc(O)c(O)c(O)c2)[C@H]1O [DHM, dihydromyricetin]",reduced,abolished,significantly reduces; also recorded: inhibits,abolished,abolished,abolished; also recorded: prevented,reduced DA firing,significantly reduced; also recorded: inhibits,inhibited,,,,,,,
"CN1CCCC1c1cccnc1 (stereo not shown) [NIC, nicotine]",,,,,,,,,,an initial reduction following by a long-lasting increase,enhanced,enhanced,reduction,enhancement of AP firing rate,increased,still maintained at a high level
